Measured values: US8637672B2 (Deciphera Pharmaceuticals, LLC, priority 2010, dated 2014)

Legend:
Assay type in all cases: biochemical
VEGFR-1 (FLT1 kinase) = biological target: T1, VEGFR-1 (FLT1 kinase) (Homo sapiens, UniProt P17948); assay: FLT1 Kinase Assay (VEGFR-1); conditions: for IC50: methods of the Biological Data section; for Fold Selectivity VEGR-1/MET: ratio VEGFR-1 IC50 / MET IC50
T1 construct: GST tagged recombinant human FLT1, amino acids 781-1338; GST; host or cells: insect cells
T1 sequence (P17948 781-1338): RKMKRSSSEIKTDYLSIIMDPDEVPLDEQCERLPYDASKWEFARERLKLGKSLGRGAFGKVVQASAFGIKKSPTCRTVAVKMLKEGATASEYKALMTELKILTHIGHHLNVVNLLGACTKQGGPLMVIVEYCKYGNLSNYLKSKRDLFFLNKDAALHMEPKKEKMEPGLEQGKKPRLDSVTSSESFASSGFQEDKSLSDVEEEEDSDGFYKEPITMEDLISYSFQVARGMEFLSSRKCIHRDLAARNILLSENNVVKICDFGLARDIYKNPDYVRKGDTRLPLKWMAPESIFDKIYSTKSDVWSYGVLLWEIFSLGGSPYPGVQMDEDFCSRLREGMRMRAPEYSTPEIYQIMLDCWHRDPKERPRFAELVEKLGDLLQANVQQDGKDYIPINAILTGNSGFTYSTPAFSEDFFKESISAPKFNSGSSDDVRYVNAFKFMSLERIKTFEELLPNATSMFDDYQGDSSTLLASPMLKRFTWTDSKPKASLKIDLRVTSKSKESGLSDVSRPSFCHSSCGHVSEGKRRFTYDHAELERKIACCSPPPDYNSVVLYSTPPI
Experimental: Activity of FLT1 kinase was determined by a radioactive filtration binding assay where incorporation of ^33P from ^33P-γ-ATP to the substrate is measured. In this assay, detection of ^33P was indicative of FLT1 phosphorylation activity which was directly proportional to the amount of phosphorylated peptide substrate poly[Glu:Tyr] (4:1). Initially, the reaction mixture contained: 400 nM FLT1, 20 mM HEPES, pH 7.5, 10 mM MgCl2, 2 mM MnCl2, 1 mM EGTA, 0.02% Brij 35, 0.02 mg/mL BSA, 0.1 mM Na3VO4, and 2 mM DTT. The reaction mixture was incubated with compound at room temperature for 30 minutes. To initiate the reaction, an equal volume of 20 μM ATP and 0.2 mg/mL peptide substrate were added and then incubated at room temperature for 2 hours. The final assay conditions were: 200 nM FLT1, 10 μM ATP, 0.1 mg/ml, substrate 20 mM HEPES, pH 7.5, 10 mM MgCl2, 1 mM EGTA, 0.02% Brij 35, 0.02 mg/mL BSA, 0.1 mM Na3VO4, 2 mM DTT, and 1% DMSO. IC50 values were calculated from a series of % Activity values determined at a range of inhibitor concentrations using software routines as implemented in the Graph Pad Prism software package.
GST tagged recombinant human FLT1, amino acids 781-1338. Expressed in insect cells.

c-MET kinase = biological target: T2, c-MET kinase (Homo sapiens, UniProt P08581); assay: c-MET Kinase Assay; conditions: for fold potency versus c-MET kinase relative to corresponding mono-fluoro analog: Compound D vs Compound E, Compound G vs Compound F; for IC50: methods of the Biological Data section
T2 construct: His6 with TEV-site leader (N); purchased Invitrogen PV3143
T2 sequence (P08581 with tags, fused parts or gaps): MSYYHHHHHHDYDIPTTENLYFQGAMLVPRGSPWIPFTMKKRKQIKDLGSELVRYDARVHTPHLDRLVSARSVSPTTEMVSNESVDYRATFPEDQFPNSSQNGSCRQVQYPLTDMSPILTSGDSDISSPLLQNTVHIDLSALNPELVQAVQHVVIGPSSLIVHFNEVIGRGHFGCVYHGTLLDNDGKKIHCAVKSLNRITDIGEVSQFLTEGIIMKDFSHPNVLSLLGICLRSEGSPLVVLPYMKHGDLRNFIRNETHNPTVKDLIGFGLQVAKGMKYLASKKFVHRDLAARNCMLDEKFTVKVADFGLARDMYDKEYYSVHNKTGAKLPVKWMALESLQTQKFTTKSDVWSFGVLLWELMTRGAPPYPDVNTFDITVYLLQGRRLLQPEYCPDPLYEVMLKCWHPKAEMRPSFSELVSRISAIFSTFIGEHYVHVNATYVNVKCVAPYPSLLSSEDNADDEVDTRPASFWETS
Experimental: Activity of c-MET kinase (Seq. ID No. 2) was determined by following the production of ADP from the kinase reaction through coupling with the pyruvate kinase/lactate dehydrogenase system (e.g., Schindler et al. Science 2000, 289, pp. 1938-1942). In this assay, the oxidation of NADH (thus the decrease at A340 nm) was continuously monitored spectrophotometrically. The reaction mixture (100 μl) contained c-MET (c-MET residues: 956-1390, from Invitrogen, catalogue #PV3143, 6 nM), polyE4Y (1 mg/mL), MgCl2 (10 mM), pyruvate kinase (4 units), lactate dehydrogenase (0.7 units), phosphoenol pyruvate (1 mM), and NADH (0.28 mM) in 90 mM Tris buffer containing 0.25 mM DTT, 0.2% octyl-glucoside and 1% DMSO, 7.5. Test compounds were incubated with c-MET (Seq. ID No. 2) and other reaction reagents at 22° C. for 0.5 h before ATP (100 μM) was added to start the reaction. The absorption at 340 nm was monitored continuously for 2 hours at 30° C. on Polarstar Optima plate reader (BMG). The reaction rate was calculated using the 1.0 to 2.0 h time frame. Percent inhibition was obtained by comparison of reaction rate with that of a control (i.e., with no test compound). IC50 values were calculated from a series of percent inhibition values determined at a range of inhibitor concentrations using software routines as implemented in the GraphPad Prism software package.

VEGFR-2 (KDR kinase) = VEGFR-2 (KDR kinase) (Homo sapiens, UniProt P35968, DEL940-989/E990V); assay: KDR Kinase Assay (VEGFR-2); conditions: for IC50: methods of the Biological Data section; for Fold Selectivity VEGFR-2/MET: ratio VEGFR-2 IC50 / MET IC50
Chain of VEGFR-2 (KDR kinase) (P35968 with tags, fused parts or gaps DEL940-989/E990V): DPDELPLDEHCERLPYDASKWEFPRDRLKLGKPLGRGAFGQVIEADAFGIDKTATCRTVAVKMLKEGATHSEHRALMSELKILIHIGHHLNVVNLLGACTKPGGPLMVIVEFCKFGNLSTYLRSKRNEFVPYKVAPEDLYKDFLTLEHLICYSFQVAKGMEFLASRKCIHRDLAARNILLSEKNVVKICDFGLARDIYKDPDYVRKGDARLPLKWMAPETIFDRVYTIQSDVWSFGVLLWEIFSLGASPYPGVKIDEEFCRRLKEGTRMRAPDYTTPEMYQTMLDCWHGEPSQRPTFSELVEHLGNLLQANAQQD
Experimental: The activity of KDR kinase was determined by following the production of ADP from the kinase reaction through coupling with the pyruvate kinase/lactate dehydrogenase system (e.g., Schindler et al. Science 2000, 289, pp. 1938-1942). In this assay, the oxidation of NADH (thus the decrease at A340 nm) was continuously monitored spectrophotometrically. The reaction mixture (100 μl) contained KDR (Seq ID No. 3, 1.5 nM to 7.1 nM, nominal concentration), polyE4Y (1 mg/mL), pyruvate kinase (3.5 units), lactate dehydrogenase (5.5 units), phosphoenolpyruvate (1 mM), and NADH (0.28 mM) in 60 mM […] buffer containing 0.13% octyl-glucoside, 13 mM MgCl2, 6.8 mM DTT, and 3.5% DMSO at pH 7.5. The reaction was initiated by adding ATP (0.2 mM, final concentration). The absorption at 340 nm was continuously monitored for 3 h at 30° C. on a Polarstar Optima plate reader (BMG) or instrument of similar capacity. The reaction rate was calculated using the 1 h to 2 h time frame. Percent inhibition was obtained by comparison of reaction rate with that of a control (i.e., with no test compound). IC50 values were calculated from a series of percent inhibition values determined at a range of inhibitor concentrations using software routines as implemented in the GraphPad Prism software package.
KDR kinase assay K2 is the same as for assay K1 except that (1) a nominal concentration of 2.1 nM of enzyme was employed (2) the reaction was pre-incubated at 30° C. for 2 h prior to initiation with ATP and (3) 1.0 mM ATP (final concentration) was used to initiate the reaction.
KDR kinase assay K3 is the same as for assay K1 except that (1) a nominal concentration of 1.1 nM of enzyme was employed, (2) the buffer components per 100 μl reaction mixture were as follows: 75 mM Tris buffer containing 0.066% octyl-glucoside, 17 mM MgCl2, and 1% DMSO at pH 7.5, (3) the final concentration of DTT was 0.66 mM, (4) the reaction was pre-incubated at 30° C. for 1 h prior to initiation with ATP, and (5) 1.0 mM ATP (final concentration) was used to initiate the reaction.

| SMILES | IC50 (VEGFR-1 (FLT1 kinase)) [nM] | Fold Selectivity VEGR-1/MET (VEGFR-1 (FLT1 kinase)) | fold potency versus c-MET kinase relative to corresponding mono-fluoro analog (c-MET kinase) [fold] | IC50 (c-MET kinase) [nM] | IC50 (VEGFR-2 (KDR kinase)) [nM] | Fold Selectivity VEGFR-2/MET (VEGFR-2 (KDR kinase)) |
| --- | --- | --- | --- | --- | --- | --- |
| CC(=O)Nc1cc(Oc2cc(F)c(NC(=O)C3(C(=O)Nc4ccc(F)cc4)CC3)cc2F)ccn1 [Compound D, N-(4-(2-acetamidopyridin-4-yloxy)-2,5-difluorophenyl)-N′-(4-fluorophenyl)cyclopropane-1,1-dicarboxamide] | 79 | 19.75 | 6.5 | 4 | 52 | 13 |
| O=C(Nc1cc(Oc2cc(F)c(NC(=O)C3(C(=O)Nc4ccc(F)cc4)CC3)cc2F)ccn1)N1CC(CO)C1 [Compound H] |  | 3.5 |  |  |  | 2.5 |
| CC(=O)Nc1cc(Oc2ccc(NC(=O)C3(C(=O)Nc4ccc(F)cc4)CC3)c(F)c2)ccn1 [Compound E, N-(4-(2-acetamidopyridin-4-yloxy)-2-fluorophenyl)-N′-(4-fluorophenyl)cyclopropane-1,1-dicarboxamide] | 160 | 6.15 |  | 26 | 122 | 4.69 |
| CN1CCN(C2CCN(C(=O)Nc3cc(Oc4cc(F)c(NC(=O)C5(C(=O)Nc6ccc(F)cc6)CC5)cc4F)ccn3)CC2)CC1 [Compound G] |  | 0.45 | 1.1 |  |  | 2.13 |
